Laboratory results taken from the NIST ThermoML archive (doi:10.1007/s10765-009-0579-1).

Assay: xn = mol fraction of the nth substance listed
Settings: Gas; for viscosity: Oscillating disk viscometry; for mass density: Pycnometric method

CC(F)(F)Cl [1-chloro-1,1-difluoroethane] + FC(F)Cl
Settings | mass density [kg/m3] | viscosity [mPa·s]
298.15 K, 101.5 kPa, x2 = 0.5169 | 3.896 | 0.01164
298.15 K, 101.7 kPa, x2 = 0.7502 | 3.754 | 0.01219
298.15 K, 101.8 kPa, x2 = 0.2615 | 4.07 | 0.01109
298.15 K, 177.1 kPa, x2 = 0.5169 | 6.906 | 0.01163
298.15 K, 198 kPa, x2 = 0.7502 | 7.44 | 0.01217
298.15 K, 205.6 kPa, x2 = 0.2615 | 8.45 | 0.01104
298.15 K, 248.7 kPa, x2 = 0.5169 | 9.867 | 0.0116
298.15 K, 291.6 kPa, x2 = 0.7502 | 11.16 | 0.01212
298.15 K, 299.2 kPa, x2 = 0.2615 | 12.59 | 0.01102
298.15 K, 323.9 kPa, x2 = 0.5169 | 13.12 | 0.01159
298.15 K, 357.3 kPa, x2 = 0.2615 | 15.25 | 0.01103
298.15 K, 384.8 kPa, x2 = 0.7502 | 15.02 | 0.01212
298.15 K, 391.5 kPa, x2 = 0.5169 | 16.21 | 0.01158
298.15 K, 406.4 kPa, x2 = 0.2615 | 17.6 | 0.011
298.15 K, 453.1 kPa, x2 = 0.5169 | 19.06 | 0.01157
298.15 K, 477.3 kPa, x2 = 0.7502 | 18.96 | 0.0121
298.15 K, 571.3 kPa, x2 = 0.7502 | 23.23 | 0.01209
323.15 K, 101.8 kPa, x2 = 0.2615 | 3.732 | 0.01206
323.15 K, 102.2 kPa, x2 = 0.7502 | 3.468 | 0.0132
323.15 K, 102.4 kPa, x2 = 0.2615 | 3.755 | 0.01207
323.15 K, 103 kPa, x2 = 0.5169 | 3.663 | 0.01262
323.15 K, 190 kPa, x2 = 0.5169 | 6.762 | 0.01261
323.15 K, 199 kPa, x2 = 0.7502 | 6.842 | 0.0132
323.15 K, 200 kPa, x2 = 0.2615 | 7.459 | 0.01203
323.15 K, 276.2 kPa, x2 = 0.5169 | 10.03 | 0.01259
323.15 K, 297.3 kPa, x2 = 0.7502 | 10.36 | 0.01317
323.15 K, 299.4 kPa, x2 = 0.2615 | 11.38 | 0.01201
323.15 K, 373.4 kPa, x2 = 0.5169 | 13.8 | 0.01259
323.15 K, 396.6 kPa, x2 = 0.2615 | 15.36 | 0.012
323.15 K, 398.7 kPa, x2 = 0.7502 | 14.09 | 0.01318
323.15 K, 473.2 kPa, x2 = 0.5169 | 17.99 | 0.01258
323.15 K, 492.9 kPa, x2 = 0.2615 | 19.48 | 0.01199
323.15 K, 510 kPa, x2 = 0.7502 | 18.34 | 0.0132
323.15 K, 575.5 kPa, x2 = 0.5169 | 22.07 | 0.01257
323.15 K, 593.3 kPa, x2 = 0.2615 | 23.99 | 0.01199
323.15 K, 618.1 kPa, x2 = 0.7502 | 22.66 | 0.0132
323.15 K, 670.6 kPa, x2 = 0.5169 | 26.3 | 0.01258
323.15 K, 687 kPa, x2 = 0.2615 | 28.43 | 0.01202
323.15 K, 724.7 kPa, x2 = 0.7502 | 26.96 | 0.01318
323.15 K, 771 kPa, x2 = 0.5169 | 30.74 | 0.01259
323.15 K, 793.7 kPa, x2 = 0.2615 | 33.76 | 0.01211
323.15 K, 828.4 kPa, x2 = 0.7502 | 31.41 | 0.0132
323.15 K, 867.1 kPa, x2 = 0.5169 | 35.23 | 0.0126
323.15 K, 937.9 kPa, x2 = 0.7502 | 36.25 | 0.01322
348.15 K, 101.4 kPa, x2 = 0.5169 | 3.305 | 0.01354
348.15 K, 101.6 kPa, x2 = 0.7502 | 3.189 | 0.01427
348.15 K, 102.1 kPa, x2 = 0.2615 | 3.463 | 0.01295
348.15 K, 198.6 kPa, x2 = 0.5169 | 6.548 | 0.01355
348.15 K, 199 kPa, x2 = 0.2615 | 6.847 | 0.01294
348.15 K, 200.7 kPa, x2 = 0.7502 | 6.368 | 0.01423
348.15 K, 296.9 kPa, x2 = 0.2615 | 10.36 | 0.01293
348.15 K, 344.3 kPa, x2 = 0.7502 | 11.09 | 0.01422
348.15 K, 345.4 kPa, x2 = 0.5169 | 11.61 | 0.01355
348.15 K, 446.2 kPa, x2 = 0.2615 | 15.92 | 0.01294
348.15 K, 490.8 kPa, x2 = 0.5169 | 16.98 | 0.01355
348.15 K, 490.8 kPa, x2 = 0.7502 | 16.07 | 0.01424
348.15 K, 590.8 kPa, x2 = 0.2615 | 21.56 | 0.01297
348.15 K, 637.2 kPa, x2 = 0.5169 | 22.25 | 0.01354
348.15 K, 638.2 kPa, x2 = 0.7502 | 21.43 | 0.01423
348.15 K, 736.9 kPa, x2 = 0.2615 | 27.57 | 0.01297
348.15 K, 781.7 kPa, x2 = 0.5169 | 27.87 | 0.01358
348.15 K, 782.5 kPa, x2 = 0.7502 | 26.5 | 0.01425
348.15 K, 887.3 kPa, x2 = 0.2615 | 34.14 | 0.01301
348.15 K, 925.6 kPa, x2 = 0.7502 | 31.97 | 0.01428
348.15 K, 930.2 kPa, x2 = 0.5169 | 33.93 | 0.01365
348.15 K, 1036 kPa, x2 = 0.2615 | 40.96 | 0.01302
348.15 K, 1077 kPa, x2 = 0.5169 | 40.31 | 0.01365
348.15 K, 1090 kPa, x2 = 0.7502 | 38.36 | 0.0143
348.15 K, 1182 kPa, x2 = 0.2615 | 48.22 | 0.01307
348.15 K, 1240 kPa, x2 = 0.7502 | 44.53 | 0.01438
348.15 K, 1262 kPa, x2 = 0.5169 | 48.67 | 0.0137
348.15 K, 1334 kPa, x2 = 0.2615 | 56.48 | 0.01312
348.15 K, 1392 kPa, x2 = 0.7502 | 51.21 | 0.01443
348.15 K, 1408 kPa, x2 = 0.5169 | 56 | 0.01377
348.15 K, 1489 kPa, x2 = 0.2615 | 65.73 | 0.01325
348.15 K, 1541 kPa, x2 = 0.7502 | 58.1 | 0.0145
348.15 K, 1552 kPa, x2 = 0.5169 | 63.84 | 0.01386
348.15 K, 1683 kPa, x2 = 0.7502 | 64.7 | 0.01457
373.15 K, 101.5 kPa, x2 = 0.5169 | 3.079 | 0.01451
373.15 K, 102.1 kPa, x2 = 0.7502 | 2.984 | 0.01518
373.15 K, 102.2 kPa, x2 = 0.2615 | 3.224 | 0.01377
373.15 K, 245.8 kPa, x2 = 0.7502 | 7.266 | 0.01517
373.15 K, 294.3 kPa, x2 = 0.5169 | 9.101 | 0.01449
373.15 K, 298.2 kPa, x2 = 0.2615 | 9.612 | 0.0138
373.15 K, 390.1 kPa, x2 = 0.7502 | 11.68 | 0.0152
373.15 K, 490 kPa, x2 = 0.5169 | 15.46 | 0.01452
373.15 K, 493.6 kPa, x2 = 0.2615 | 16.27 | 0.01381
373.15 K, 583.4 kPa, x2 = 0.7502 | 17.74 | 0.01521
373.15 K, 686.2 kPa, x2 = 0.5169 | 22.09 | 0.01454
373.15 K, 695.2 kPa, x2 = 0.2615 | 23.4 | 0.01381
373.15 K, 782.8 kPa, x2 = 0.7502 | 24.22 | 0.01526
373.15 K, 876.7 kPa, x2 = 0.2615 | 30.25 | 0.01387
373.15 K, 879 kPa, x2 = 0.5169 | 28.79 | 0.01458
373.15 K, 889.8 kPa, x2 = 0.2615 | 30.77 | 0.01388
373.15 K, 978.5 kPa, x2 = 0.7502 | 30.82 | 0.0153
373.15 K, 1080 kPa, x2 = 0.5169 | 36.34 | 0.01464
373.15 K, 1085 kPa, x2 = 0.2615 | 38.57 | 0.01394
373.15 K, 1173 kPa, x2 = 0.7502 | 37.6 | 0.01535
373.15 K, 1277 kPa, x2 = 0.5169 | 43.98 | 0.01476
373.15 K, 1281 kPa, x2 = 0.2615 | 46.94 | 0.01403
373.15 K, 1361 kPa, x2 = 0.7502 | 44.52 | 0.01542
373.15 K, 1472 kPa, x2 = 0.5169 | 51.98 | 0.0148
373.15 K, 1483 kPa, x2 = 0.2615 | 56.2 | 0.01413
373.15 K, 1565 kPa, x2 = 0.7502 | 52.28 | 0.0155
373.15 K, 1666 kPa, x2 = 0.5169 | 60.38 | 0.01486
373.15 K, 1689 kPa, x2 = 0.2615 | 66.3 | 0.01426
373.15 K, 1760 kPa, x2 = 0.7502 | 60.2 | 0.01559
373.15 K, 1862 kPa, x2 = 0.5169 | 69.61 | 0.01502
373.15 K, 1897 kPa, x2 = 0.2615 | 77.72 | 0.01439
373.15 K, 1952 kPa, x2 = 0.7502 | 68.25 | 0.01568
373.15 K, 2065 kPa, x2 = 0.5169 | 80.02 | 0.01509
373.15 K, 2115 kPa, x2 = 0.2615 | 91.26 | 0.01461
373.15 K, 2190 kPa, x2 = 0.7502 | 79.1 | 0.01586
373.15 K, 2295 kPa, x2 = 0.5169 | 92.76 | 0.01537
373.15 K, 2299 kPa, x2 = 0.2615 | 104.3 | 0.01486
373.15 K, 2398 kPa, x2 = 0.7502 | 89.07 | 0.01602
373.15 K, 2448 kPa, x2 = 0.5169 | 102 | 0.01542
373.15 K, 2467 kPa, x2 = 0.2615 | 117.9 | 0.01516
